From PubChem BioAssay (NCI)
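How tested: cells in 96-well plates exposed to compound for 48 hours at five concentrations. The concentration for 50% growth inhibition is given as GI50. The concentration for full growth arrest is given as TGI.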

Columns and labels:
Test in all cases: growth of human tumour cells (NCI), 48 h
[1] = system: 786-0 renal
[2] = system: A498 renal
[3] = system: A549 NSCLC
[4] = system: ACHN renal
[5] = system: BT-549 breast
[6] = system: CAKI-1 renal
[7] = system: CCRF-CEM leukemia
[8] = system: COLO 205 colon
[9] = system: DU-145 prostate
[10] = system: EKVX NSCLC
[11] = system: HCC-2998 colon
[12] = system: HCT-116 colon
[13] = system: HCT-15 colon
[14] = system: HL-60(TB) leukemia
[15] = system: HOP-62 NSCLC
[16] = system: HOP-92 NSCLC
[17] = system: HS 578T breast
[18] = system: HT29 colon
[19] = system: IGROV1 ovarian
[20] = system: K-562 leukemia
[21] = system: KM12 colon
[22] = system: LOX IMVI melanoma
[23] = system: M14 melanoma
[24] = system: MALME-3M melanoma
[25] = system: MCF7 breast
[26] = system: MDA-MB-231 breast
[27] = system: MDA-MB-435
[28] = system: MOLT-4 leukemia
[29] = system: NCI-H226 lung
[30] = system: NCI-H23 lung
[31] = system: NCI-H460 lung
[32] = system: NCI-H522 lung
[33] = system: NCI/ADR-RES ovarian
[34] = system: OVCAR-3 ovarian
[35] = system: OVCAR-4 ovarian
[36] = system: OVCAR-5 ovarian
[37] = system: OVCAR-8 ovarian
[38] = system: PC-3 prostate
[39] = system: RPMI-8226 leukemia
[40] = system: RXF 393 renal
[41] = system: SF-268 CNS
[42] = system: SF-295 CNS
[43] = system: SF-539 CNS
[44] = system: SK-MEL-2 melanoma
[45] = system: SK-MEL-28 melanoma
[46] = system: SK-MEL-5 melanoma
[47] = system: SK-OV-3 ovarian
[48] = system: SN12C renal
[49] = system: SNB-19 CNS
[50] = system: SNB-75 CNS
[51] = system: SR leukemia
[52] = system: SW-620 colon
[53] = system: T-47D breast
[54] = system: TK-10 renal
[55] = system: U251 CNS
[56] = system: UACC-257 melanoma
[57] = system: UACC-62 melanoma
[58] = system: UO-31 renal

## COc1cc2nccc(Oc3ccc(NC(=O)NC4CC4)c(Cl)c3)c2cc1C(N)=O
[1]
  GI50: 13.4 µM
  TGI: 37.7 µM
[2]
  GI50: 4.63 µM
  TGI: 51.1 µM
[3]
  GI50: 29.9 µM
  TGI: > 100 µM
[4]
  GI50: 9.17 µM
  TGI: > 100 µM
[5]
  GI50: 5.17 µM
  TGI: 27.2 µM
[6]
  GI50: 23.9 µM
  TGI: > 64.2 µM
[7]
  GI50: 62.6 µM
  TGI: > 100 µM
[8]
  GI50: > 72.8 µM
  TGI: > 100 µM
[9]
  GI50: 21.6 µM
  TGI: > 100 µM
[10]
  GI50: 26.1 µM
  TGI: > 100 µM
[11]
  GI50: > 100 µM
  TGI: > 100 µM
[12]
  GI50: 25.4 µM
  TGI: > 100 µM
[13]
  GI50: 32 µM
  TGI: > 100 µM
[14]
  GI50: > 100 µM
  TGI: > 100 µM
[15]
  GI50: 21.4 µM
  TGI: 61.5 µM
[16]
  GI50: 7.06 µM
  TGI: 38.3 µM
[17]
  GI50: 14.5 µM
  TGI: > 86.9 µM
[18]
  GI50: > 100 µM
  TGI: > 100 µM
[19]
  GI50: 30.6 µM
  TGI: > 100 µM
[20]
  GI50: 3.63 µM
  TGI: > 100 µM
[21]
  GI50: 5.5 µM
  TGI: > 100 µM
[22]
  GI50: 70.2 µM
  TGI: > 100 µM
[23]
  GI50: 51 µM
  TGI: > 100 µM
[24]
  GI50: 40.7 µM
  TGI: > 100 µM
[25]
  GI50: 36.2 µM
  TGI: > 100 µM
[26]
  GI50: 11.5 µM
  TGI: 43.8 µM
[27]
  GI50: > 100 µM
  TGI: > 100 µM
[28]
  GI50: 16.7 µM
  TGI: > 100 µM
[29]
  GI50: 1.1 µM
  TGI: > 43.4 µM
[30]
  GI50: 15.6 µM
  TGI: > 74.6 µM
[31]
  GI50: 39.9 µM
  TGI: > 100 µM
[32]
  GI50: 5.74 µM
  TGI: 28.2 µM
[33]
  GI50: 35.2 µM
  TGI: > 100 µM
[34]
  GI50: 23.1 µM
  TGI: > 100 µM
[35]
  GI50: 12.2 µM
  TGI: > 100 µM
[36]
  GI50: 47.4 µM
  TGI: > 100 µM
[37]
  GI50: 17.5 µM
  TGI: > 79.1 µM
[38]
  GI50: 42.5 µM
  TGI: > 100 µM
[39]
  GI50: 22.4 µM
  TGI: > 100 µM
[40]
  GI50: 12.4 µM
  TGI: 43.4 µM
[41]
  GI50: 10.3 µM
  TGI: 48 µM
[42]
  GI50: 23.4 µM
  TGI: > 85.7 µM
[43]
  GI50: 0.536 µM
  TGI: 40 µM
[44]
  GI50: 19.1 µM
  TGI: 48.6 µM
[45]
  GI50: 41.3 µM
  TGI: > 100 µM
[46]
  GI50: 40 µM
  TGI: > 100 µM
[47]
  GI50: 17.5 µM
  TGI: 94.6 µM
[48]
  GI50: 7.44 µM
  TGI: > 100 µM
[49]
  GI50: 17.7 µM
  TGI: 62.1 µM
[50]
  GI50: 2.82 µM
  TGI: 36.8 µM
[51]
  GI50: 30.5 µM
  TGI: > 100 µM
[52]
  GI50: 97.5 µM
  TGI: > 100 µM
[53]
  GI50: 14.4 µM
  TGI: > 100 µM
[54]
  GI50: 14.5 µM
  TGI: > 78.5 µM
[55]
  GI50: 11.5 µM
  TGI: 42.8 µM
[56]
  GI50: 27 µM
  TGI: > 93.7 µM
[57]
  GI50: 19.1 µM
  TGI: > 89.2 µM
[58]
  GI50: 5.55 µM
  TGI: > 100 µM
